{SH} = thiol group (3'-OH replaced by SH), used for disulfide linkage to a drug
Experiments:
[1] = test system: AGTR1-negative breast cancer BT474 cell line; experiment: p-His3 (mitotic arrest marker) ICC/confocal in co-culture, AGTR1-negative cells; format: cell-based, human; settings: 10 nM, 24 hr; co-culture 1:1 with MCF7-AGTR1; HER2-expressed cells = BT474
Protocol: (§1) (1) As produced in Example 1, the AGTR1-positive breast cancer MCF7 cell line (MCF7-AGTR1) and the AGTR1-negative breast cancer BT474 cell line (typically, MCF7 is a HER2-negative breast cancer cell line and BT474 is a HER2-positive breast cancer cell line) were co-cultured at a ratio of 1:1, and HER2 and a mitotic arrest marker, namely phospho-Histone H3 (p-[…]), were stained with ICC, the nuclei of which were stained with DAPI, and were then treated with a control (DMSO), DM1, and Aptamer-DM1 at a concentration of 10 nM for 24 hr. Thereafter, the nuclei (blue), p-[…] (green), and HER2 (red) were imaged using a confocal microscope. The number of cells in which p-[…] was detected was quantified based on whether or not AGTR1 was expressed. During the staining procedure, the MCF7-AGTR1 and BT474 cells cultured on 8-well chamber slides were fixed with 4% paraformaldehyde, washed with PBS, and cultured for 10 min with 0.2% Triton X-100. Thereafter, the cells were cultured overnight at 4° C. with primary antibodies in an antibody dilution buffer and then cultured at room temperature for 2 hr with fluorescence-conjugated secondary antibodies. Thereafter, the cells were mounted on ProLong Gold Antifade Reagent containing DAPI (4',6'-diamidine-2'-phenylindole dihydrochloride).

[2] = test system: AGTR1-negative breast cancer cell line (BT474); experiment: Apoptosis rate (sub-G1%) by PI DNA content flow cytometry, AGTR1-negative cells; format: cell-based, human; settings: 10 nM, 48 hr
Protocol: (§2) (1) The AGTR1-positive breast cancer cell line (MCF7-AGTR1) and the AGTR1-negative breast cancer cell line (BT474) were treated with a control (DMSO), DM1, Aptamer, and Aptamer-DM1 at a concentration of 10 nM for 48 hr, after which the cells were acquired and fixed with 95% ethanol containing 0.5% Tween-20 for 24 hr and cultured for 30 min with propidium iodide (PI, 50 μg/ml) and RNase (50 μg/ml). Thereafter, the apoptosis rate (sub-G1%) of cancer cells was measured through DNA content analysis using flow cytometry.
(§3) (2) Typically, the cell cycle includes, depending on the amount of DNA in cells, G1 (cell growth phase), S (cell replication phase), and G2/M (cell mitotic phase). […] The results of apoptosis are represented by the percentage of sub-G1 in the cell cycle.

[3] = test system: AGTR1-positive breast cancer MCF7 cell line (MCF7-AGTR1); experiment: p-His3 (mitotic arrest marker) ICC/confocal in co-culture, AGTR1-positive cells; format: cell-based, human; settings: 10 nM, 24 hr; co-culture 1:1 with BT474; HER2-not-expressed cells = MCF7-AGTR1
Protocol: as §1

[4] = test system: AGTR1-positive breast cancer cell line (MCF7-AGTR1); experiment: Apoptosis rate (sub-G1%) by PI DNA content flow cytometry, AGTR1-positive cells; format: cell-based, human; settings: 10 nM, 48 hr
Protocol: as §2, §3

MCF7-AGTR1 cancer cells = experiment: Tumor volume in breast cancer disease animal model; format: in vivo, BALB/c nude mice; settings: 0.75 mg/kg intraperitoneally three times a week, measured for 3 weeks
Protocol: (1) Starting from the 4th day after MCF7-AGTR1 cancer cells (3×10^6 cells) were inoculated into the fourth mammary fat pads of immunodeficient 6-week-old female BALB/c nude mice, Aptamer (0.75 mg/kg) and Aptamer-DM1 (0.5 mg/kg, 0.75 mg/kg) were intraperitoneally administered three times a week. Then, the tumor volume was measured for 3 weeks. The body weights of mice were measured for 3 weeks. The tumor volume (V) was measured using a caliper and calculated according to V=(length×width^2)/2. In a Terminal deoxynucleotidyl transferase dUTP Nick End Labeling (TUNEL) assay, the tumors were removed from the mice, fixed in 10% neutral buffered formalin, and embedded in paraffin. The 4 μm thick tissue section was mounted on a positively charged glass slide, deparaffinized with xylene, and […] through a graded alcohol series. After antigen retrieval, the above tissue section was boiled in a citric acid buffer (pH 6.0) and immunofluorescence was performed. In situ TUNEL was performed on the above tissue section using a TUNEL kit (Roche Applied Sciences, Penzberg, GER), and the images thereof were obtained using a confocal scanning microscope.

[5] = test system: AGTR1-overexpressed SK-BR-3; experiment: Confocal imaging of Cy3-coupled aptamers binding to / internalizing in AGTR1-positive cells; format: cell-based, human; settings: 500 nM Cy3-coupled aptamer, 10^7 cells, room temperature; compared among SEQ ID NOS:1 to 6
Protocol: 1) 100 μl (10^7 cells) of target cells, namely AGTR1-overexpressed SK-BR-3, and 100 μl of 500 nM aptamer were reacted at room temperature and imaged using a confocal microscope. The aptamers have respective base sequences of SEQ ID NOS:1 to 6, the end of each of which is coupled with a fluorescence dye Cy3.

Molecule	expression of p-His3 (confocal, FIG. 4) [1]	apoptosis rate (sub-G1%) (FIG. 6) [2]	expression of p-His3 (confocal, FIG. 4) [3]	apoptosis rate (sub-G1%) (FIG. 6) [4]	growth of tumors (tumor volume, FIG. 7) (MCF7-AGTR1 cancer cells)	internalization / fluorescence intensity (confocal, FIG. 3) [5]
COc1cc2cc(c1Cl)N(C)C(=O)C[C@H](OC(=O)[C@H](C)N(C)C(C)=O)[C@]1(C)O[C@H]1[C@H](C)[C@@H]1C[C@@](O)(NC(=O)O1)[C@H](OC)/C=C/C=C(\C)C2 [DM1, maytansine]	observed regardless of whether HER2 was expressed or not	relatively high	observed regardless of whether HER2 was expressed or not	relatively high		
Aptamer: DNA aptamer 5'-AAGTCGTCTTTGCCAAATACCGGTCTGTCGGTGGGTATTG-3' (SEQ ID NO:4) with thiol group introduced at the 3' terminus (DNA, 3' {SH}, backbone not given here)		remarkably low		remarkably low	partially inhibited	
SEQ ID NO:4: ssDNA aptamer AAGTCGTCTTTGCCAAATACCGGTCTGTCGGTGGGTATTG; Cy3-coupled in the confocal test (DNA, backbone not given here; further chemistry not fully specified)						strongest fluorescence intensity

From patent US10195285B2, “AGTR1 aptamer-anticancer drug complex for cancer cell chemotherapy” (KOREA UNIVERSITY RESEARCH AND BUSINESS FOUNDATION, priority 2016, dated 2019)
